Reference: patent US6258837A, “Neuropeptide Y receptor antagonist” (Banyu Pharmaceutical Co., Ltd., priority 1997, dated 2001)

Tests used:
SD male rats [1] = assay: acute toxicity test; type: in vivo, rat; details: 500 mg/kg oral
Experimental: A compound to be tested in an amount of 500 mg/kg was orally administered to each of SD male rats (10-week-old; 300 to 400 g). After immediately, 5 minutes, 30 minutes, 1 hour, 2 hours, 4 hours, 6 hours, 8 hours and 24 hours from the administration, the condition of each rat was observed. And, after 24 hours from the administration, the rat was killed by dehematizing via carotid artery and then laparotomized in order to observe the presence or absence of any change in abdominal organs by the naked eye. In this connection, the compound to be tested was administered in a dose of 5 ml/kg after suspending in a 0.5% aqueous methyl cellulose solution.

human NPY Y5 receptor = molecular target: T1, human NPY Y5 receptor (Homo sapiens, UniProt Q15761); assay: test of inhibition of NPY binding ([125I]peptide YY binding to membranes of cells expressing the NPY Y5 receptor)
T1 construct: expressed in transfected cells; host or cells: COS-7, CHO and LM(tk-)
T1 sequence (Q15761 1-445): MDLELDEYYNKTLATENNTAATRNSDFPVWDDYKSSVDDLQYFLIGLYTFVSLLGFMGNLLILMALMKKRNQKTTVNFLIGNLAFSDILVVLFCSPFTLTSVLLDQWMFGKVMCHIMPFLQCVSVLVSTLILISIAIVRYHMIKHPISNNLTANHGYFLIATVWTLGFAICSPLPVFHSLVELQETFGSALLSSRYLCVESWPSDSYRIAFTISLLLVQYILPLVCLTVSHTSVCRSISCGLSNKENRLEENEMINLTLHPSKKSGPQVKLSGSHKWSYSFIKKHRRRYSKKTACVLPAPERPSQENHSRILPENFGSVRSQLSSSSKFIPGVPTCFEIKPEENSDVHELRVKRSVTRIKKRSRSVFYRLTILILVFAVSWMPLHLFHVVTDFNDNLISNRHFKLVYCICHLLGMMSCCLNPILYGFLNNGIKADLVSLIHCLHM
From the text: cDNA Sequence encoding a human NPY Y5 receptor [International Publication WO 96/16542] was cloned into expression vectors pcDNA3, pRc/RSV (manufactured by Invitrogen) and pCI-neo (manufactured by Promega). Using the cationic lipid method [see Proceedings of the National Academy of Science of the United States of America, vol.84, p.7413 (1987)], host cells COS-7, CHO and LM(tk-) (American Type Culture Collection) were transfected with the thus prepared expression vectors to obtain cells in which the NPY Y5 receptor had been expressed.
After washing with 50 mM Tris buffer, pH 7.4, containing 0.3% BSA, radioactivity on the glass filter was measured using a gamma counter. Non-specific binding was measured in the presence of 1 μM of peptide YY to calculate a concentration of each compound to be tested which concentration is needed to inhibit 50% of the specific binding of the peptide YY (IC50 value) [see Endocrinology, vol.131, p.2090 (1992)].

SD male rats [2] = assay: test of inhibition of feeding behavior induced by bPP; type: in vivo, rat; details: oral, one hour before bPP (5 μg/head/10 μl, lateral cerebral ventricle); food intake during two hours
Experimental: Under pentobarbital anesthesia (single intraperitoneal injection of 50 mg/kg), a chronic guide cannula (outer diameter 0.8 mm; inner diameter 0.5 mm; length 10 mm) was stereotactically inserted in a right lateral cerebral ventricle of each of SD male rats (7 to 8-week-old; 200 to 300 g) and fixed using a dental resin. A tip of the guide cannula was positioned 0.9 mm behind a bregma, 1.2 mm at the right of a median line and in the depth of 1.5 mm from the brain surface. An inner needle was inserted such that its tip projected from the tip of the guide cannula by about 2 mm and arrived to a lateral cerebral ventricle. After a recovery period of about one week, a bovine pancreatic polypeptide (bpp, 5 μg/head/10 μl) was administered to the lateral cerebral ventricle. A compound to be tested was orally administered one hour before the administration of bpp and food intake during two hours from the administration was measured. In this connection, the compound to be tested was administered after dissolving in a 0.5% aqueous methyl cellulose solution and bpp was administered after dissolving in 10 mM phosphate buffered saline.

## CC1(C)CC(=O)C(C2C3=C(CC(C)(C)CC3=O)Oc3ccccc32)C(=O)C1 (racemic) [compound [I], 3,3-dimethyl-9-(4,4-dimethyl-2,6-dioxo-cyclohexyl)-1-oxo-1,2,3,4-tetrahydroxanthene]
SD male rats [1]; 24 hours after administration
  change in abdominal organs observed by the naked eye (acute toxicity): abdominal organs were observed to be unchanged
SD male rats [1]; until 24 hours after administration
  general health of each rat (acute toxicity): no abnormality in general health of each rat was observed
Human NPY Y5 receptor; [125I] peptide YY, 25° C., 2 hours, pH 7.4, membrane preparations, read-out: concentration needed to inhibit 50% of the specific binding of the peptide YY (IC50 value)
  IC50: 27 nM
Human NPY Y5 receptor; peptide YY (a homologue of NPY)
  inhibition of the binding of the peptide YY to the NPY Y5 receptor (in words): strongly inhibited the binding
SD male rats [2]
  inhibition of the increase in food intake induced by bPP: significantly inhibits the increase in food intake
